Experimental data as given in patent publication US8188078B2 (Sanofi-Aventis, priority 2007, dated 2012).
pIC50: −log10 of the molar value. Where a name gives a salt, the structure may show the parent alone.

Assays:
RON = RON (Homo sapiens, UniProt Q04912); assay: Test B: HTRF RON test in 96-well format; format: biochemical
Procedure: B) HTRF RON Test in 96-Well Format
The inhibitory potency (IC50) of molecules on the enzymatic activity of kinase phosphorylation RON is determined by the HTRF technique. The activity of the kinase is evaluated by measuring the phosphorylation of the substrate polyGAT by the enzyme, in the presence of ATP.
Final RON 5 nM is incubated in the presence of the molecule to be tested (for a final concentration range from 0.17 nM to 10 μM, final DMSO 3%) in buffer MOPS 10 mM pH 7, DTT 1 mM, Tween 20 0.01%. This pre-incubation is performed in 96 half-well black plates in a volume of 35 μl for 30 minutes at room temperature.
The reaction is initiated by adding 15 μl of a mixture of substrates constituted of biotinylated poly-(GAT) 1 μg/ml final and ATP 10 μM final in the presence of MgCl2 5 mM final for a final volume of 50 μl.
After incubation for 30 min at room temperature, the reaction is stopped with 30 μl of a mixture of Hepes 100 mM final pH 7, potassium fluoride 400 mM final, BSA 0.1% and EDTA 133 mM in the presence of 80 ng per well of antibodies Streptavidin ITS-XL665 Cis-Bio Int. and 18 ng per well of anti-phosphotyrosine PT66 labelled with europium cryptate.
After incubation for 2 hours at room temperature, reading is carried out at 2 wavelengths 620 nm and 665 nm in a Genios TECAN reader for the TRACE/HTRF technique and the percentage inhibition is calculated according to the 665/620 ratios.

c-MET = molecular target: T1, c-MET (Homo sapiens, UniProt P08581); assay: Test A: HTRF Met test in 96-well format; format: biochemical
T1 construct: The recombinant DNA His-Tev-MET (956-1390) in pFastBac(Invitrogen); His (N, cleaved yes); Tev (TEV protease site) (N, cleaved yes); made in house; host or cells: SF21 insect cells (baculovirus, pFastBac)
Outline: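 The kinase was the Sf21-expressed MET cytoplasmic domain (956–1390), His tag removed, used at 5 nM with compound (0.17 nM–10 µM, 3% DMSO) in 10 mM MOPS pH 7.4. Poly-GAT 1 µg/ml, 10 µM ATP and 5 mM MgCl2 reacted 10 min at RT. After an EDTA stop, phosphotyrosine was detected by HTRF (665/620 ratio).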

Chain of RON (Q04912 25-1400): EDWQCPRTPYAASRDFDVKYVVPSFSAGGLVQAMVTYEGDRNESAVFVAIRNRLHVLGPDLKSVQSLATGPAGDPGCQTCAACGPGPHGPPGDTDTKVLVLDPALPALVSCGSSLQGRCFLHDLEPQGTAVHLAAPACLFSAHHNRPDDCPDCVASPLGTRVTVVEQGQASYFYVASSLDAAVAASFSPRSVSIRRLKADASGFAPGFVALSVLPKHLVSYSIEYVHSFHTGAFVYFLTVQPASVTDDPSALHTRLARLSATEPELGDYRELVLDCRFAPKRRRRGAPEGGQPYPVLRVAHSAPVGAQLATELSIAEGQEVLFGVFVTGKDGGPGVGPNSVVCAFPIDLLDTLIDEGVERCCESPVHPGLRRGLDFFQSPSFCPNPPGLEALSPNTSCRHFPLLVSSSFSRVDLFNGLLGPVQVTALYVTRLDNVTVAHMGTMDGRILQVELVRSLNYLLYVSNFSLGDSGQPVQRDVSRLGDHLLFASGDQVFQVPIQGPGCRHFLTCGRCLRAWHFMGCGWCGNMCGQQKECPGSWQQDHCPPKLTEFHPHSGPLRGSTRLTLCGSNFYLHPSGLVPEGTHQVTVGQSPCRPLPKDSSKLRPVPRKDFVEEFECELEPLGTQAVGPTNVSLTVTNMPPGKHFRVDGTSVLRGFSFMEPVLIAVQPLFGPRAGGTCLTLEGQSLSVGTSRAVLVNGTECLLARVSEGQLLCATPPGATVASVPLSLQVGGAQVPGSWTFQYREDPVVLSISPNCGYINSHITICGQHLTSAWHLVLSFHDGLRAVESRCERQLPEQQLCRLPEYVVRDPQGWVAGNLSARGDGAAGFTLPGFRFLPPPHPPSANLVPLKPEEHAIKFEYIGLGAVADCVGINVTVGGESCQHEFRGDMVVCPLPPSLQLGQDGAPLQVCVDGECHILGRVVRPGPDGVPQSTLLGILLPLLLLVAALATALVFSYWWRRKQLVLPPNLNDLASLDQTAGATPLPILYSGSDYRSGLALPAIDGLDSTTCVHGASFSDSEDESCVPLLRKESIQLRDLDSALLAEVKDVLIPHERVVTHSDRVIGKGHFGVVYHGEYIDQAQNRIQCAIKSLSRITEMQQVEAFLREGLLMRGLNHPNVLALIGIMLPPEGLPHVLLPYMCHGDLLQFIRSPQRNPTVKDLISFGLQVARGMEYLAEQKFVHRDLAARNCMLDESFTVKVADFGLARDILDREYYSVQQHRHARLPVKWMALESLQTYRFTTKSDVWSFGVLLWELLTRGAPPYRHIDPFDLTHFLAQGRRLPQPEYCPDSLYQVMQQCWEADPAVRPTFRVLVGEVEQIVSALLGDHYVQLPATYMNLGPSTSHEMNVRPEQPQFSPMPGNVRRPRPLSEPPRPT
T1 sequence (P08581 956-1390): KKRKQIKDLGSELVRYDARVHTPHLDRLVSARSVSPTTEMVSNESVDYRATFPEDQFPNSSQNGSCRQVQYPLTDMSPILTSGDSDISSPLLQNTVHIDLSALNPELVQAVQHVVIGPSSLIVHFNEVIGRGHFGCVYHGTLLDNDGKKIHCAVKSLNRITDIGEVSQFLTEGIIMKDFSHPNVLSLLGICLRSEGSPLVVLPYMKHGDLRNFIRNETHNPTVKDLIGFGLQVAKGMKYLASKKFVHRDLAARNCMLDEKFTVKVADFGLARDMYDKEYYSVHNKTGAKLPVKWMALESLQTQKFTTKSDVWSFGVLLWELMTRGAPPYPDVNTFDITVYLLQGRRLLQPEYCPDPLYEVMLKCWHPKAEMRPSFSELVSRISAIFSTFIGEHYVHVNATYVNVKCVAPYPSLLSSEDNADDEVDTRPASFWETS

test B (RON) | pIC50 (c-MET) | pIC50 (RON) | Structure (SMILES)
– | > 7.00 | 5.00 to 6.30 | CC(Oc1cc2sc(NC(=O)NCCN3CCOCC3)nc2cc1Cl)c1c(Cl)ccc(F)c1Cl (stereo not shown) [Example 106, 1-{5-chloro-6-[1-(2,6-dichloro-3-fluorophenyl)ethoxy]-1,3-benzothiazol-2-yl}-3-[2-(morpholin-4-yl)ethyl]urea]
– | > 7.00 | > 6.30 | CC(Oc1ccc2nc(NC(=O)NCCN3CCOCC3)sc2c1)c1c(Cl)ccc(F)c1Cl (stereo not shown) [Example 24, 1-{6-[1-(2,6-dichloro-3-fluorophenyl)ethoxy]-1,3-benzothiazol-2-yl}-3-(2-morpholin-4-ylethyl)urea]
– | > 7.00 | > 6.30 | CC(Oc1cc2sc(NC(=O)NCCN3CCOCC3)nc2cc1F)c1c(Cl)cccc1Cl (stereo not shown) [Example 29, 1-{6-[1-(2,6-dichlorophenyl)ethoxy]-5-fluoro-1,3-benzothiazol-2-yl}-3-(2-morpholin-4-ylethyl)urea]
– | > 7.00 | 5.00 to 6.30 | CC(Oc1ccc2nc(NC(=O)NCCN3CCCC3)sc2c1)c1c(Cl)ccc(Cl)c1Cl (stereo not shown) [Example 125, 1-[2-(pyrrolidin-1-yl)ethyl]-3-{6-[1-(2,3,6-trichlorophenyl)ethoxy]-1,3-benzothiazol-2-yl}urea]
– | > 7.00 | > 6.30 | CC(Oc1ccc2nc(NC(=O)NCCN3CCOCC3)[nH]c2c1)c1c(Cl)ccc(F)c1Cl (stereo not shown) [Example 4, 4-{2-[({6-[1-(2,6-Dichloro-3-fluorophenyl)ethoxy]-1H-benzimidazol-2-yl}carbamoyl)amino]ethyl}morpholin-4-ium trifluoroacetate]
– | > 7.00 | 5.00 to 6.30 | CC(Oc1ccc2nc(NC(=O)NCCCN3CCCCC3)sc2c1)c1c(Cl)ccc(F)c1Cl (stereo not shown) [Example 44, 1-{6-[1-(2,6-dichloro-3-fluorophenyl)ethoxy]-1,3-benzothiazol-2-yl}-3-(3-piperidin-1-ylpropyl)urea]
– | > 7.00 | 5.00 to 6.30 | CC(Oc1cc2sc(NC(=O)NCCN3CCOCC3)nc2cc1F)c1c(F)ccc(Cl)c1Cl (stereo not shown) [Example 111, 1-{6-[1-(2,3-dichloro-6-fluorophenyl)ethoxy]-5-fluoro-1,3-benzothiazol-2-yl}-3-[2-(morpholin-4-yl)ethyl]urea]
– | > 7.00 | > 6.30 | CC(Oc1ccc2nc(NC(=O)NCCN3CCOCC3)sc2c1)c1c(Cl)cccc1Cl (stereo not shown) [Example 17, 1-{6-[1-(2,6-dichlorophenyl)ethoxy]-1,3-benzothiazol-2-yl}-3-(2-morpholin-4-ylethyl)urea]
– | > 7.00 | > 6.30 | C[C@@H](Oc1cc2sc(NC(=O)NCCN3CCOCC3)nc2cc1F)c1c(Cl)ccc(F)c1Cl (single isomer, unassigned) [Example 33, 1-{6-[(1R)-(2,6-dichloro-3-fluorophenyl)ethoxy]-5-fluoro-1,3-benzothiazol-2-yl}-3-(2-morpholin-4-ylethyl)urea or 1-{6-[(1S)-(2,6-dichloro-3-fluorophenyl)ethoxy]-5-fluoro-1,3-benzothiazol-2-yl}-3-(2-morpholin-4-ylethyl)urea]
– | > 7.00 | 5.00 to 6.30 | CC(Oc1ccc2nc(NC(=O)NCCN3CCOCC3)sc2c1)c1c(F)cccc1F (stereo not shown) [Example 18, 1-{6-[1-(2,6-difluorophenyl)ethoxy]-1,3-benzothiazol-2-yl}-3-(2-morpholin-4-ylethyl)urea]
– | > 7.00 | 5.00 to 6.30 | O=C(NCCN1CCOCC1)Nc1nc2ccc(OC(c3c(Cl)cccc3Cl)C(F)(F)F)cc2s1 (stereo not shown) [Example 64, 1-{6-[1-(2,6-dichlorophenyl)-2,2,2-trifluoroethoxy]-1,3-benzothiazol-2-yl}-3-(2-morpholin-4-ylethyl)urea]

Second part, the molecule before the results:

Structure (SMILES) | test B (RON) | pIC50 (c-MET) | pIC50 (RON)
CC(Oc1cc2sc(NC(=O)NCCN3CCNC(=O)C3)nc2cc1F)c1c(Cl)ccc(F)c1Cl (stereo not shown) [Example 130, 1-{6-[1-(2,6-dichloro-3-fluorophenyl)ethoxy]-5-fluoro-1,3-benzothiazol-2-yl}-3-[2-(3-oxopiperazin-1-yl)ethyl]urea] | += | > 7.00 | –
CC(Oc1cc2sc(NC(=O)NCCN3CCCC3)nc2cc1F)c1c(F)ccc(Cl)c1Cl (stereo not shown) [Example 118, 1-{6-[1-(2,3-dichloro-6-fluorophenyl)ethoxy]-5-fluoro-1,3-benzothiazol-2-yl}-3-[2-(pyrrolidin-1-yl)ethyl]urea] | – | > 7.00 | > 6.30
CC(Oc1ccc2nc(NC(=O)NCCCN3CCN(Cc4c(F)cccc4Cl)CC3)sc2c1)c1c(Cl)ccc(F)c1Cl (stereo not shown) [Example 46, 1-{3-[4-(2-chloro-6-fluorobenzyl)piperazin-1-yl]propyl}-3-{6-[1-(2,6-dichloro-3-fluorophenyl)ethoxy]-1,3-benzothiazol-2-yl}urea] | – | > 7.00 | 5.00 to 6.30
CC(Oc1cc2sc(NC(=O)NCCCO)nc2cc1F)c1c(Cl)ccc(F)c1Cl (stereo not shown) [Example 105, 1-{6-[1-(2,6-dichloro-3-fluorophenyl)ethoxy]-5-fluoro-1,3-benzothiazol-2-yl}-3-(3-hydroxypropyl)urea] | – | > 7.00 | > 6.30
CC(Oc1ccc2nc(NC(=O)NCCCN3CCCCCC3)sc2c1)c1c(Cl)ccc(F)c1Cl (stereo not shown) [Example 48, 1-(3-azepan-1-ylpropyl)-3-{6-[1-(2,6-dichloro-3-fluorophenyl)ethoxy]-1,3-benzothiazol-2-yl}urea] | – | > 7.00 | > 6.30
CCN1CCN(CCNC(=O)Nc2nc3cc(F)c(OC(C)c4c(Cl)ccc(F)c4Cl)cc3s2)CC1 (single isomer, unassigned) [Example 102, 1-{6-[(1S*)-1-(2,6-dichloro-3-fluorophenyl)ethoxy]-5-fluoro-1,3-benzothiazol-2-yl}-3-[2-(4-ethylpiperazin-1-yl)ethyl]urea] | – | > 7.00 | 5.00 to 6.30
CC(Oc1cc2sc(NC(=O)NCCCN3CCCC3=O)nc2cc1F)c1c(F)ccc(Cl)c1Cl (stereo not shown) [Example 114, 1-{6-[1-(2,3-dichloro-6-fluorophenyl)ethoxy]-5-fluoro-1,3-benzothiazol-2-yl}-3-[3-(2-oxopyrrolidin-1-yl)propyl]urea] | – | > 7.00 | > 6.30
CC(Oc1cc2sc(NC(=O)CCCN3CCCC3)nc2cc1F)c1c(Cl)ccc(F)c1Cl (stereo not shown) [Example 68, N-{6-[1-(2,6-dichloro-3-fluorophenyl)ethoxy]-5-fluoro-1,3-benzothiazol-2-yl}-4-(pyrrolidin-1-yl)butanamide] | – | > 7.00 | 5.00 to 6.30
CC(Oc1ccc2nc(NC(=O)NCCCN3CCN(Cc4ccccc4)CC3)sc2c1)c1c(Cl)ccc(F)c1Cl (stereo not shown) [Example 49, 1-[3-(4-benzylpiperazin-1-yl)propyl]-3-{6-[1-(2,6-dichloro-3-fluorophenyl)ethoxy]-1,3-benzothiazol-2-yl}urea] | – | > 7.00 | 5.00 to 6.30
CC(Oc1ccc2nc(NC(=O)C3CC3)sc2c1)c1c(Cl)ccc(F)c1Cl (stereo not shown) [Example 66, N-{6-[1-(2,6-dichloro-3-fluorophenyl)ethoxy]-1,3-benzothiazol-2-yl}cyclopropanecarboxamide] | – | > 7.00 | 5.00 to 6.30
CC(Oc1cc2sc(NC(=O)NCCN3CCCC3)nc2cc1F)c1c(Cl)ccc(Cl)c1Cl (stereo not shown) [Example 126, 1-{5-fluoro-6-[1-(2,3,6-trichlorophenyl)ethoxy]-1,3-benzothiazol-2-yl}-3-[2-(pyrrolidin-1-yl)ethyl]urea] | – | > 7.00 | 5.00 to 6.30
O=C(NCCN1CCOCC1)Nc1nc2cc(F)c(OCc3c(Cl)cccc3Cl)cc2s1 [Example 21, 1-{6-[(2,6-dichlorobenzyl)oxy]-5-fluoro-1,3-benzothiazol-2-yl}-3-(2-morpholin-4-ylethyl)urea] | – | > 7.00 | 5.00 to 6.30
CC(Oc1cc2sc(NC(=O)NCCO)nc2cc1F)c1c(Cl)ccc(F)c1Cl (single isomer, unassigned) [Example 99, 1-{6-[(1R*)-1-(2,6-dichloro-3-fluorophenyl)ethoxy]-5-fluoro-1,3-benzothiazol-2-yl}-3-(2-hydroxyethyl)urea] | – | > 7.00 | > 6.30
CC(Oc1cc2sc(NC(=O)CN3CCNCC3)nc2cc1F)c1c(Cl)ccc(F)c1Cl (stereo not shown) [Example 69, N-{6-[1-(2,6-dichloro-3-fluorophenyl)ethoxy]-5-fluoro-1,3-benzothiazol-2-yl}-2-(piperazin-1-yl)acetamide] | – | > 7.00 | 5.00 to 6.30
CC(Oc1cc2sc(NC(=O)NCCN3CCN(C)CC3)nc2cc1F)c1c(F)ccc(Cl)c1Cl (single isomer, unassigned) [Example 117, 1-{6-[(1S*)-1-(2,3-dichloro-6-fluorophenyl)ethoxy]-5-fluoro-1,3-benzothiazol-2-yl}-3-[2-(4-methylpiperazin-1-yl)ethyl]urea] | – | > 7.00 | 5.00 to 6.30
